Assay: Rheological analysis of thermal gelation temperature (oscillation temperature sweep, abrupt increase in G′)
Format: physicochemical
Conditions: for αG, rate of change in gelation temperature as a function of additive composition: 2% w/v HPMC 2910, linear fit TGel=T0−αGx (FIG. 5)
Source text: Rheology is the most direct and reliable way to determine the sol-gel transition temperature, as well as characterize the rheological properties of both solution and subsequent gel. As a result, a rheometer was chosen to determine the sol-gel transition temperature of the HPMC solutions disclosed. Rheological properties such as dynamic moduli G′, G″, and complex viscosity η* change when the temperature is in the vicinity of the sol-gel transition. The rheometer is able to measure these properties during heating.
During the routine measurements in these studies, the following procedure was observed: (i) Each HPMC solution was placed on to the bottom Peltier plate of the Discovery Hybrid HR-2 rheometer (TA Instruments, Newcastle, Del., USA) equipped with a Peltier […] temperature system and a 50 mm parallel plate; (ii) Oscillation temperature sweep was performed to determine the effect of temperatures on complex viscosity (η*), storage modulus (G′), and loss modulus (G″) at angular frequency of 1 rad/s and stress applied was 0.4 Pa; (iii) In this study samples were heated in the range of 10-80° C. at a rate of 1° C./min. A thin layer of low-viscosity silicon oil was placed around the sample to prevent dehydration during measurements; (iv) All measurements were repeated in triplicate. The abrupt increase in G′, which is accompanied by a sharp increase in viscosity was considered to be a suitable way to define a thermal gelation temperature.
Statistical differences in the thermal gelation temperature of different hypromellose formulations containing different halide salt concentrations were determined using a one-way ANOVA test using Microsoft Excel Analysis Toolpak (Microsoft Inc., Redmond, Wash.). P values of <0.05 were considered statistically significant.

[Cl-].[Na+] [NaCl, sodium chloride]
αG, rate of change in gelation temperature as a function of additive composition: ~4.0

[F-].[Na+] [NaF, Sodium fluoride]
factor by which αG-NaF is greater than αG-NaCl (2% w/v HPMC 2910): ~3.6 times
αG, rate of change in gelation temperature as a function of additive composition: ~14.5

Reference: US11369631B1, “Oral gelling liquid formulations” (UMM Rainforest Innovations, priority 2019, dated 2022)
